According to patent US9752115B2, “Culture conditions for expansion of nephron progenitor cells” (Maine Medical Center Research Institute, priority 2014, dated 2017):

How the values were obtained:
CITED1+ progenitors [1] = conditions: serum free medium; BIO 2 μM, CHIR99021 3 μM; cited from earlier work
CITED1+ progenitors [2] = test: Aggregate culture tubulogenesis of purified CITED1+ progenitors; format: cell-based, mouse
Procedure: Cell culture. CITED1+ progenitors were purified from NZCs derived from E17.5 kidneys as previously described (Brown et al., 2011b; Brown et al., 2013). CITED1+ progenitors were cultured in monolayer on hESC qualified MatrigelTM coated plates (Corning). For human or mouse passage, cells were dissociated by incubation with TrypLE (Life Technologies) for 2 minutes at 37 C, washed and spun 2× at 300 g in autoMACs running buffer (Miltenyi) prior to resuspension in NPEM as described in Table 1. NPEM is changed every 2 days. Cells were differentiated in aggregate culture with CHIR (3 μM) in medium as previously described (Brown et al., 2013). To understand if these observations could be extrapolated to CITED1+ cells in culture, a series of experiments was performed upon nephron progenitor cells isolated from embryonic mouse kidneys. Using a previously developed isolation protocol, CITED1+ progenitors were harvested from embryonic mouse kidneys between the ages of E16.5 to P1 at near 100% purity, allowing interrogation of the CITED1+ population at multiple time points (FIGS. 7A and 7B) (Brown et al., 2013). However, CITED1 progenitor purity dropped to 75% by P2, likely due to the loss of CITED1+ progenitors that occurred during cessation (FIG. 7B and FIG. 6B).

[3] = test system: E17.5 CITED1+ progenitors; test: Subtraction of individual factors from NPEM, mouse progenitors; format: cell-based; conditions: for competence for tubulogenesis after subtraction of the factor: 7 days in aggregate culture after monolayer; for progenitor growth and state in the absence of the factor: factor subtracted from NPEM, 3 days monolayer
Procedure: Flow cytometry. CITED1+ progenitors were purified from GFP+ kidneys isolated from Cited1creERT2-EGFP×ICR mice and cultured as described in the text. GFP fluorescence intensity and cell counts were collected on a FACSCalibur (BD) and data were analyzed using FlowJo software.
Using flow cytometry on E17.5 CITED1+ progenitors derived from Cited1creERT2-EGFP mice, the requirement for each of the culture additives to maintain cells in the undifferentiated state was evaluated by subtracting them from the medium (FIGS. 10A and 10B).
In the absence of LDN, nuclear localization of pSMAD1/5 increased dramatically, as did transcription of the SMAD response gene Cv2 (FIGS. 10C and 10D). […] In addition to losing CITED1 expression, progenitors cultured in the absence of LDN lost expression of characteristic marker genes including […], PAX2, WT1 and […], which may have helped to explain their lack of competence (FIG. 10F and FIG. 14). CITED1+ progenitors isolated from E13.5 kidneys also required LDN to expand while maintaining their competence to differentiate (FIG. 15).

[4] = test system: hESC-derived nephron progenitors; test: Subtraction of individual components from NPEM, hESC-derived progenitors; format: cell-based, human; conditions: passage 3 progenitors, 3 days monolayer
Procedure: FIGS. 19A and 19B show nephron progenitor marker expression in human ES cell derived cultures grown in the absence of individual factors. In FIG. 19A, passage 3 progenitors were grown in NPEM in the absence of individual factors for 3 days in monolayer culture and immunostained for CITED1, SIX2, PAX2 and WT1. Antibody staining is shown in red and nuclear counterstaining with DAPI is shown in blue. In FIG. 19B, passage 3 progenitors were grown in NPEM in the absence of the indicated factors for 3 days in monolayer culture and immunostained for PAX2.
To understand if cellular growth in NPEM could be directly extrapolated to human cells, the above analysis was repeated with nephron progenitor cells derived from hESCs using the Takasato protocol (Takasato et al., 2014). CITED1+/SIX2+/PAX2+/WT1+ cells generated using this procedure lost expression of nephron progenitor markers following a single passage (FIG. 12A and FIG. 18A). […] When LDN was eliminated from the medium during the passage 2 culture, cells lost expression of PAX2 (FIG. 12C).

SMAD1/5 phosphorylation = test: pSMAD1/5 immunoblot of nephrogenic zone cells from LDN-treated newborn pups; format: in vivo, mouse; conditions: immunoblot of isolated NZCs; 3 mg/kg intraperitoneal twice daily P0 until P2
Text: (§1) Fluorescent imaging of GFP expression in cap mesenchymes “C” shown. […] Cap mesenchymes are outlined with dotted red lines. […] Percent remaining after LDN treatment quantified in graph. NZCs were isolated from 4 kidney pairs per treatment group and pooled. […] Representative image from 4 kidney pairs per group shown. […] Data represent the mean±SD of qPCR technical replicates from 5 (DMSO) and 6 (LDN) pooled kidney pairs.
(§2) Mouse strains and treatments. Animal care was in accordance with the National Research Council Guide for the Care and Use of Laboratory Animals and protocols were approved by the Institutional Animal Care and Use Committee of Maine Medical Center. CITED1 progenitors were derived from kidneys of Cited1creERT2-EGFP×ICR (Institute for Cancer Research mice) heterozygous mice. Cited1creERT2-EGFP and Six2cre-EGFP mouse strains are maintained on an FVB/NJ background (Boyle et al., 2008a; Kobayashi et al., 2008).
(§3) LDN was selected over other similar analogs because it is highly specific for SMAD1/5 and has been successfully used in vivo (Yu et al., 2008). […] To measure the differentiation status of nephron progenitor cells, Cited1creERT2-EGFP and Six2cre-EGFP mouse strains were used, which dynamically expressed fluorescent protein under the control of Cited1 and Six2 (Boyle et al., 2008a; Kobayashi et al., 2008). […]

cap mesenchyme = test: Cited1/Six2 EGFP reporter expression in cap mesenchyme of treated pups; format: in vivo, mouse; conditions: EGFP reporter mice, P2 and P3; untreated animals lost expression
Text: as §1, §2, §3

ALK7 = molecular target: T1, ALK7 (Homo sapiens, UniProt Q8NER5); conditions: ALK7, not inhibited; cited from earlier work
T1 sequence (Q8NER5 21-493): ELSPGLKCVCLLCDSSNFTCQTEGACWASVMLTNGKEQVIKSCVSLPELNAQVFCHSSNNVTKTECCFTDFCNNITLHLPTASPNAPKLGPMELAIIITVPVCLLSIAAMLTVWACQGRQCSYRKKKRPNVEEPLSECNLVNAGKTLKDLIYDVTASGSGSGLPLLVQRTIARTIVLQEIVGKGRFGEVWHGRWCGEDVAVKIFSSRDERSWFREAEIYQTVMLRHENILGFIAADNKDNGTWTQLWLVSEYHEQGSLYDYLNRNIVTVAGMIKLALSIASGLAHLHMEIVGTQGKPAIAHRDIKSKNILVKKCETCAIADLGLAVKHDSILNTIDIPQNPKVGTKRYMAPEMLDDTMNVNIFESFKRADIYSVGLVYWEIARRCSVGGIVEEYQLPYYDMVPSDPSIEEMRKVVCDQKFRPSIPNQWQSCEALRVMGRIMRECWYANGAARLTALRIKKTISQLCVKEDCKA

| Compound | tubulogenesis in aggregate culture with WNT/β-catenin agonist (CITED1+ progenitors [1]) | tubulogenesis of P0 Cited1creERT2-EGFP progenitors (CITED1+ progenitors [2]; CHIR 3 μM, by day 4, GFP expression lost) | competence for tubulogenesis after subtraction of the factor [3] | progenitor growth and state in the absence of the factor [3] | expression of CITED1, PAX2, SIX2 and WT1 after subtraction of the component [4] | reduction in SMAD1/5 phosphorylation compared to vehicle-treated controls (SMAD1/5 phosphorylation) | expression of Cited1 and Six2 in cap mesenchyme (cap mesenchyme) | Cited1-driven GFP expression (CITED1+ progenitors [2]; LDN 75 nM added to CHIR 3 μM) | effect on CHIR-induced tubulogenesis (CITED1+ progenitors [2]; LDN 75 nM added to CHIR 3 μM) | IC50 (ALK7) [µM] |
| --- | --- | --- | --- | --- | --- | --- | --- | --- | --- | --- |
| O=C1Nc2cc(Br)ccc2/C1=C1/Nc2ccccc2/C1=N\O [BIO] | robust tubulogenesis |  |  |  |  |  |  |  |  |  |
| Cc1c[nH]c(-c2cnc(NCCNc3ccc(C#N)cn3)nc2-c2ccc(Cl)cc2Cl)n1 [CHIR99021] | robust tubulogenesis | underwent tubulogenesis | still competent to undergo tubulogenesis | failed to expand but remained CITED1+ | critical dependence |  |  |  |  |  |
| c1ccc2c(-c3cnn4cc(-c5ccc(N6CCNCC6)cc5)cnc34)ccnc2c1 [LDN-193189] |  |  | unable to undergo differentiation | expanded but were largely CITED1 negative | critical dependence | greater than 95% | expression was maintained | maintained GFP expression | blocked tubulogenesis | > 0.5 |
| C[C@@H](N)[C@H]1CC[C@H](C(=O)Nc2ccncc2)CC1 [Y-27632] |  |  | still competent to undergo tubulogenesis | significant decrease in cell attachment | critical dependence |  |  |  |  |  |
